Broadly, the IC50 is the point on the concentration scale where inhibition reaches its midpoint.

Settings in all cases: 12 h
Assay [1] relates to SARS-CoV-2 B.1.1.7 (Alpha) PsV.
Assay [2] has as its system SARS-CoV-2 B.1.351 (Beta) PsV.
Assay [3] relates to SARS-CoV-2 P.1 (Gamma) PsV.
Assay [4] relates to SARS-CoV-2 B.1.617.2 (Delta) PsV.

Molecules are shown by their SMILES.

Turning to `CC[C@H](C)[C@H](NC(=O)[C@H](C)NC(=O)[C@H](CCC(=O)O)NC(=O)[C@H](CCC(=O)O)NC(=O)[C@H](CC(C)C)NC(=O)[C@H](CCCCN)NC(=O)[C@H](CCCCN)NC(=O)[C@H](CCSC)NC(=O)[C@H](CCC(=O)O)NC(=O)[C@H](Cc1ccc(O)cc1)NC(=O)[C@H](CCC(=O)O)NC(=O)[C@H](CC(C)C)NC(=O)[C@H](CC(=O)O)NC(=O)[C@H](CC(C)C)NC(=O)[C@H](Cc1ccccc1)NC(=O)[C@@H](NC(=O)[C@@H](NC(=O)[C@H](CC(N)=O)NC(=O)[C@@H](NC(=O)[C@H](CCC(N)=O)NC(=O)[C@H](CC(=O)O)NC(=O)[C@H](CC(C)C)NC(=O)[C@@H](N)CO)[C@@H](C)CC)C(C)C)[C@@H](C)O)C(=O)N[C@@H](CCCCN)C(=O)N[C@@H](CCCCN)C(=O)N[C@@H](CC(C)C)C(=O)N[C@@H](CCC(=O)O)C(=O)N[C@@H](CCC(=O)O)C(=O)N[C@@H](CO)C(=O)N[C@@H](Cc1ccc(O)cc1)C(=O)N[C@H](C(=O)N[C@@H](CC(=O)O)C(=O)N[C@@H](CC(C)C)C(=O)N[C@@H](CCCCN)C(=O)N[C@@H](CCC(=O)O)C(=O)N[C@@H](CC(C)C)C(=O)O)[C@@H](C)CC` [EK1], the IC50 in assay [1] stood at 4610 nM; in assay [2], 2290 nM; in assay [3] it was 1320 nM; in assay [4], 480 nM.

Source of the values: publication PMC8584349 (International Journal of Molecular Sciences, 2021).
